According to patent US20190290675A1, “GLYCAN POLYMERS AND RELATED METHODS THEREOF” (priority 2016, published 2019):

System: Dorea formicigenerans ATCC 27755 “DFO.36”
Assay: single strain growth assay, enzymatically synthesized glycans and parent sugars
Format: cell-based
Conditions: 0.5% w/v, 37° C., 18-48 hours, anaerobic; OD600 blanked against no glycan or sugar
Experimental: (§1) An in vitro assay was performed to assess the ability of various bacterial strains, including commensals and pathogens of the gastrointestinal tract, to utilize enzymatically synthesized glycans (i.e., glycan polymers) and the sugars from which they were derived as growth substrates. The assay was designed to determine if enzymatically synthesized glycans differ from the sugars from which they are derived in how well they support growth of potentially beneficial or harmful bacterial members of the human microbiome. Bacterial strains were handled at all steps in an anaerobic chamber (AS-580, Anaerobe Systems) featuring a palladium catalyst. The chamber was initially made anaerobic by purging with an anaerobic gas mixture of 5% hydrogen, 5% carbon dioxide and 90% nitrogen and subsequently maintained in an anaerobic state using this same anaerobic gas mixture. Anaerobicity of the chamber was confirmed daily using Oxoid anaerobic indicator strips that change color in the presence of oxygen. All culture media, assay plates, other reagents and plastic consumables were pre-reduced in the anaerobic chamber for at least 24-48 hours prior to contact with bacteria. […] Bacterial isolates were obtained from the American Type Culture Collection (ATCC) and Leibniz Institute DSMZ-German Institute of Microorganisms and Cell Cultures (DSMZ). […] Inocula were prepared by determining the optical density of each culture at 600 nM (OD600) in a Costar 3370 polystyrene 96-well flat-bottom assay plate using a Biotek Synergy 2 plate reader with Gen5 2.0 All-In-One Microplate Reader Software according to manufacturer's protocol, and diluting the cells to OD600 0.01 final in defined and semi-defined media that were prepared without sugars. […]

Structure (SMILES) | Growth, DFO.36
OC[C@H]1O[C@@H](O[C@@H]2[C@@H](CO)OC(O)(CO)[C@H]2O)[C@H](O)[C@@H](O)[C@H]1O (mixture of isomers) [lactulose] | − (<0.1)
OC[C@H]1O[C@H](OC[C@H]2O[C@H](O[C@]3(CO)O[C@H](CO)[C@@H](O)[C@@H]3O)[C@H](O)[C@@H](O)[C@@H]2O)[C@H](O)[C@@H](O)[C@H]1O [raffinose] | − (<0.1)
OC[C@H]1O[C@@](CO)(O[C@H]2O[C@H](CO)[C@@H](O)[C@H](O)[C@H]2O)[C@@H](O)[C@@H]1O [sucrose] | − (<0.1)

System: Clostridium scindens ATCC 35704 “CSC.32”
Assay: as above
Format: cell-based
Conditions: 0.5% w/v, 37° C., 18-48 hours, anaerobic; OD600 blanked against no glycan or sugar
Experimental: as §1

Structure (SMILES) | Growth, CSC.32
OC[C@H]1O[C@@H](O[C@@H]2[C@@H](CO)OC(O)(CO)[C@H]2O)[C@H](O)[C@@H](O)[C@H]1O (mixture of isomers) [lactulose] | − (<0.1)
OC[C@H]1O[C@H](OC[C@H]2O[C@H](O[C@]3(CO)O[C@H](CO)[C@@H](O)[C@@H]3O)[C@H](O)[C@@H](O)[C@@H]2O)[C@H](O)[C@@H](O)[C@H]1O [raffinose] | − (<0.1)
OC[C@H]1O[C@@](CO)(O[C@H]2O[C@H](CO)[C@@H](O)[C@H](O)[C@H]2O)[C@@H](O)[C@@H]1O [sucrose] | − (<0.1)

System: Parabacteroides distasonis ATCC 8503 “PDI.6”
Assay: as above
Format: cell-based
Conditions: 0.5% w/v, 37° C., 18-48 hours, anaerobic; OD600 blanked against no glycan or sugar
Experimental: as §1

Structure (SMILES) | Growth, PDI.6
OC[C@H]1O[C@@H](O[C@@H]2[C@@H](CO)OC(O)(CO)[C@H]2O)[C@H](O)[C@@H](O)[C@H]1O (mixture of isomers) [lactulose] | ++ (0.3-0.7)
OC[C@H]1O[C@H](OC[C@H]2O[C@H](O[C@]3(CO)O[C@H](CO)[C@@H](O)[C@@H]3O)[C@H](O)[C@@H](O)[C@@H]2O)[C@H](O)[C@@H](O)[C@H]1O [raffinose] | +++ (>0.7)
OC[C@H]1O[C@@](CO)(O[C@H]2O[C@H](CO)[C@@H](O)[C@H](O)[C@H]2O)[C@@H](O)[C@@H]1O [sucrose] | ++ (0.3-0.7)

System: Dorea longicatena DSM 13814 “DLO.76”
Assay: as above
Format: cell-based
Conditions: 0.5% w/v, 37° C., 18-48 hours, anaerobic; OD600 blanked against no glycan or sugar
Experimental: as §1

Structure (SMILES) | Growth, DLO.76
OC[C@H]1O[C@@H](O[C@@H]2[C@@H](CO)OC(O)(CO)[C@H]2O)[C@H](O)[C@@H](O)[C@H]1O (mixture of isomers) [lactulose] | − (<0.1)
OC[C@H]1O[C@H](OC[C@H]2O[C@H](O[C@]3(CO)O[C@H](CO)[C@@H](O)[C@@H]3O)[C@H](O)[C@@H](O)[C@@H]2O)[C@H](O)[C@@H](O)[C@H]1O [raffinose] | − (<0.1)
OC[C@H]1O[C@@](CO)(O[C@H]2O[C@H](CO)[C@@H](O)[C@H](O)[C@H]2O)[C@@H](O)[C@@H]1O [sucrose] | +++ (>0.7)

System: Bacteroides thetaiotaomicron ATCC 29741 “BTH.8”
Assay: as above
Format: cell-based
Conditions: 0.5% w/v, 37° C., 18-48 hours, anaerobic; OD600 blanked against no glycan or sugar
Experimental: as §1

Structure (SMILES) | Growth, BTH.8
OC[C@H]1O[C@@H](O[C@@H]2[C@@H](CO)OC(O)(CO)[C@H]2O)[C@H](O)[C@@H](O)[C@H]1O (mixture of isomers) [lactulose] | + (0.1-0.3)
OC[C@H]1O[C@H](OC[C@H]2O[C@H](O[C@]3(CO)O[C@H](CO)[C@@H](O)[C@@H]3O)[C@H](O)[C@@H](O)[C@@H]2O)[C@H](O)[C@@H](O)[C@H]1O [raffinose] | − (<0.1)
OC[C@H]1O[C@@](CO)(O[C@H]2O[C@H](CO)[C@@H](O)[C@H](O)[C@H]2O)[C@@H](O)[C@@H]1O [sucrose] | +++ (>0.7)

System: Blautia hansenii ATCC 27752 “BHA.20”
Assay: as above
Format: cell-based
Conditions: 0.5% w/v, 37° C., 18-48 hours, anaerobic; OD600 blanked against no glycan or sugar
Experimental: An in vitro assay was performed to assess the ability of various bacterial strains, including commensals and pathogens of the gastrointestinal tract, to utilize enzymatically synthesized glycans (i.e., glycan polymers) and the sugars from which they were derived as growth substrates. The assay was designed to determine if enzymatically synthesized glycans differ from the sugars from which they are derived in how well they support growth of potentially beneficial or harmful bacterial members of the human microbiome. Bacterial strains were handled at all steps in an anaerobic chamber (AS-580, Anaerobe Systems) featuring a palladium catalyst. The chamber was initially made anaerobic by purging with an anaerobic gas mixture of 5% hydrogen, 5% carbon dioxide and 90% nitrogen and subsequently maintained in an anaerobic state using this same anaerobic gas mixture. Anaerobicity of the chamber was confirmed daily using Oxoid anaerobic indicator strips that change color in the presence of oxygen. All culture media, assay plates, other reagents and plastic consumables were pre-reduced in the anaerobic chamber for at least 24-48 hours prior to contact with bacteria. […] Inocula were prepared by determining the optical density of each culture at 600 nM (OD600) in a Costar 3370 polystyrene 96-well flat-bottom assay plate using a Biotek Synergy 2 plate reader with Gen5 2.0 All-In-One Microplate Reader Software according to manufacturer's protocol, and diluting the cells to OD600 0.01 final in defined and semi-defined media that were prepared without sugars. […]

Structure (SMILES) | Growth, BHA.20
OC[C@H]1O[C@@H](O[C@@H]2[C@@H](CO)OC(O)(CO)[C@H]2O)[C@H](O)[C@@H](O)[C@H]1O (mixture of isomers) [lactulose] | +++ (>0.7)
OC[C@H]1O[C@H](OC[C@H]2O[C@H](O[C@]3(CO)O[C@H](CO)[C@@H](O)[C@@H]3O)[C@H](O)[C@@H](O)[C@@H]2O)[C@H](O)[C@@H](O)[C@H]1O [raffinose] | ++ (0.3-0.7)
OC[C@H]1O[C@@](CO)(O[C@H]2O[C@H](CO)[C@@H](O)[C@H](O)[C@H]2O)[C@@H](O)[C@@H]1O [sucrose] | − (<0.1)
